Where two headings read alike, the source gives them in different places.
Tests used:
[1] = Vancomycin trough and peak concentrations, fluorescence polarization immunoassay; format: in vivo, Chinese neonates; conditions: after at least four doses, 10–15 mg/kg q8h or q12h, FPIA
Protocol: Concentrations of vancomycin were determined using the fluorescence polarization immunoassay with an ARCHITECT i2000SR (Abbott Laboratories, Chicago, IL, USA). The limit of detection was 1 mg/L, and the calibration range of this assay was 3 to 50 mg/L. The intra-day and inter-day coefficients of variation (CVs) were all < 20%.

[2] = cited from earlier work
Description: The maximum a posteriori Bayesian estimation method has already been used to support vancomycin dosing decisions in adults (Deng et al., [2013]; Jacqz-Aigrain et al., [2015]) and children (Le et al., [2014]). To obtain accurate estimation with this method for individualized therapy, it is crucial that reliable population pharmacokinetic characteristics are known for the target patients. […] (H ...

[3] = Population pharmacokinetic modeling of vancomycin (NONMEM, FOCE-I, one-compartment, first-order elimination); conditions: for θ4, volume of distribution V / θ5, exponent of body weight on V / θ1, clearance CL: final model
Protocol: Chinese neonates who received vancomycin in the neonatal ICU at Shanghai Children's Hospital (Shanghai, China) between January 2013 and December 2016 were enrolled. Patients included in this study were neonates with PMA ≤ 48 weeks for preterm neonates and with postnatal age (PNA) ≤ 28 days for term neonates. All patients were treated with vancomycin for at least 3 days, and at least one vancomycin concentration was assayed. Patients with extracorporeal membrane oxygenation or continuous renal replacement therapy were excluded from the current study. The following information was retrospectively collected from electronic medical records: gestational age (GA), PMA, PNA, body weight (WT), dosing history and concentration of vancomycin, serum creatinine (Scr) levels, clinical laboratory tests of other renal and hepatic functions, and co-administered medications.
The dose of vancomycin (Vancocin, Lilly, S.A, Suzhou, China) was 10–15 mg/kg, which was administrated every 8 h (q8h) or every 12 h (q12h) with a 2-h infusion, in accordance with local protocols. Blood samples were collected 1 h after completion of drug infusion (peak concentration) or half an hour before the start of vancomycin administration (trough concentration) for each patient. Trough and peak concentrations were obtained after at least four repeated doses. Potential outlier data points (observations) were identified by employing conditional weighted residual (CWRES) results outside a range of ± 6 (Byon et al., [2013]).
Population pharmacokinetic modeling was performed using the NONMEM program (Version 7.4; Icon Inc, PA, USA) compiled with gFortran (Version 4.9.2; http://www.gfortran.org). R (Version 3.3.1; http://www.r-project.org) and the Xpose package (Version 4.5.3; http://xpose.sourceforge.net) were used for visual diagnosis. The first-order conditional estimation method with η–ε interaction (FOCE-I) was used throughout the model-building procedure (Wählby et al., [2001]).
The vancomycin concentration data were fitted by the one or two compartment with a first-order elimination model. NONMEM subroutines were specified as ADVAN1-TRANS2 or ADVAN3-TRANS4, respectively.
An exponential model (Equation 1) was used to account for inter-individual variability (IIV):
Residual unexplained variability was tested by an additive model (Equation 2), exponential model (Equation 3), or a combined additive and exponential model (Equation 4):
Four different models based on allometric scaling were tested using Equation (5): (5) Pi= TV(P)×(COV/COVmedian)^θ×MF
The robustness of the model was assessed using a nonparametric bootstrap (Ette, [1997]), with repetition of 2000 NONMEM runs of the final model. The bootstrap median parameter values and the percentile bootstrap 95% confidence intervals were compared with the respective values estimated from the final model.

[4] = Model III, WT-dependent exponent model
[5] = Model IV, age-dependent exponent model

## CN[C@H](CC(C)C)C(=O)N[C@H]1C(=O)N[C@@H](CC(N)=O)C(=O)N[C@H]2C(=O)N[C@H]3C(=O)N[C@H](C(=O)N[C@H](C(=O)O)c4cc(O)cc(O)c4-c4cc3ccc4O)[C@H](O)c3ccc(c(Cl)c3)Oc3cc2cc(c3O[C@@H]2O[C@H](CO)[C@@H](O)[C@H](O)[C@H]2O[C@H]2C[C@](C)(N)[C@H](O)[C@H](C)O2)Oc2ccc(cc2Cl)[C@H]1O [vancomycin]
[1]; 1 h after completion of 2-h infusion, 90 peak samples
  Peak concentration, median (range): 20.3 (4.09–51.9) mg/L
[1]; column 'Modeling group' (value ± spread), 1 h after completion of 2-h infusion, 90 peak samples
  Peak concentration: 22.3 ± 11.0 mg/L
[1]; column 'Modeling group' (value ± spread), half an hour before administration, 2-h infusion, 75 trough samples, 80 neonates
  Trough concentration: 11.2 ± 7.92 mg/L
[1]; half an hour before administration, 2-h infusion, 75 trough samples
  Trough concentration, median (range): 9.15 (3.14–42.9) mg/L
[2]; adult Caucasian patients, first of two values, ref Guay et al., [1993], Sánchez et al., [2010]
  clearance (CL): 4.03 ± 1.7 L/h
[2]; adult Caucasian patients, second of two values, ref Guay et al., [1993], Sánchez et al., [2010]
  clearance (CL): 5.83 ± 2.39 L/h
[2]; adult Chinese patients, second of two values, ref He et al., [2014], Lin et al., [2015]
  clearance (CL): 6.06 ± 2.46 L/h
[2]; neonatal patient with weight of 3 kg and PMA of 40 weeks, Caucasian, Japanese, Malaysian neonates, ref Seay et al., [1994] to Lo et al., [2010] (b5)
  average clearance across all three populations: 0.08 to 0.50 L/h
[3]; Model I, simple exponent model
  k, exponent for body weight (RSE%): 1.57 (10.9%)
[3]; Model I, simple exponent model, MF = 1
  CLp typical value of apparent clearance (RSE%): 0.319 (5.1%) L/h
[3]; Model II, maturation model
  Hill (RSE%): 4.45 (105%)
  TM50, age at which clearance maturation reaches 50% of that of adults (RSE%): 46.9 (102%)
[3]; Model II, maturation model, k fixed 0.75
  CLp typical value of apparent clearance (RSE%): 0.911 (235%) L/h
[3]; Model III
  k50, body weight at which there is a 50 % decrease in the kmax (RSE%): 12.7 (53.1%)
  kmax, maximum decrease of the exponent (RSE%): 1.08 (25%)
  θ0, exponent at a theoretical WT of 0 kg (RSE%): 1.57 (10.9%)
[3]; [4]
  CLp typical value of apparent clearance (RSE%): 0.319 (5.1%) L/h
  Hill (RSE%): 23.6 (17.2%)
[3]; Model IV
  k50, age at which there is a 50 % decrease in the kmax (RSE%): 62.3 (22%)
  kmax, maximum decrease of the exponent (RSE%): 1.08 (25%)
  θ0, exponent at age at birth (RSE%): 1.57 (10.9%)
[3]; [5]
  CLp typical value of apparent clearance (RSE%): 0.319 (5.1%) L/h
  Hill (RSE%): 60.7 (23.4%)
[3]; NONMEM estimate, WT 2.9 kg
  θ4, volume of distribution V: 2.63 L
[3]; NONMEM estimate, [WT(kg)/2.9]^θ5
  θ5, exponent of body weight on V: 1.05
[3]; NONMEM estimate, typical neonate WT 2.9 kg, Scr 23.3 μmol/L
  θ1, clearance CL: 0.309 L/h
[3]; bootstrap median, 2000 runs
  θ1, clearance CL: 0.308 L/h
  θ4, volume of distribution V: 2.62 L
  θ5, exponent of body weight on V: 1.06

From publication PMC6029141, “Population Pharmacokinetics of Vancomycin in Chinese ICU Neonates: Initial Dosage Recommendations” (Frontiers in Pharmacology, 2018)
